Values joined by “and” are separate entries in the source; they are usually repeats but may differ in a detail not shown here. Identical values can stand only once. Toxic doses and inconclusive results are not listed. Numbered stars: 1 amine (or outer) side, 2 acyl side, 3 side chain; on linkers, the order of the positions; unused ones are H or OH. Peptide text beside a SMILES is read from it. ξ: configuration not given here. ξγGlu = O=C(O)C(CCC(=O)[*:2])N[*:1]
Tested on: BDF1 mice, B16 melanoma ip, median survival T/C
Experiment: NCI In Vivo Anticancer Drug Screen. Data for tumor model B16 Melanoma (intraperitoneal) in B6D2F1 (BDF1) mice
Details: endpoint: median survival time, higher = longer survival
In short: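 The ratio T/C compares compound-treated mice with vehicle-treated controls, using survival or tumor size as the endpoint in a transplantable tumor model.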

[1] = dose: 50.0 mg/kg/injection, schedule: Q01DX009 (ip), vehicle: saline
[2] = dose: 100.0 mg/kg/injection, schedule: Q01DX009 (ip), vehicle: saline
[3] = dose: 200.0 mg/kg/injection, schedule: Q01DX009 (ip), vehicle: saline
[4] = dose: 100.0 mg/kg/injection, schedule: Q01DX009 (ip), vehicle: Klucel (hydroxypropylcellulose) (HPC)
[5] = dose: 200.0 mg/kg/injection, schedule: Q01DX009 (ip), vehicle: Klucel (hydroxypropylcellulose) (HPC)
[6] = dose: 400.0 mg/kg/injection, schedule: Q01DX009 (ip), vehicle: Klucel (hydroxypropylcellulose) (HPC)
[7] = dose: 100.0 mg/kg/injection, schedule: Q04DX003 (ip), vehicle: Klucel (hydroxypropylcellulose) (HPC)
[8] = dose: 200.0 mg/kg/injection, schedule: Q04DX003 (ip), vehicle: Klucel (hydroxypropylcellulose) (HPC)
[9] = dose: 400.0 mg/kg/injection, schedule: Q04DX003 (ip), vehicle: Klucel (hydroxypropylcellulose) (HPC)

`NC(CCC(=O)NCC(=O)NCC(=O)O)C(=O)O` (stereo not drawn) (ξγGlu-Gly-Gly-OH) was tested, and the T/C [1] was 106 % of control, the T/C [2] was 97 % of control and the T/C [3] was 102 % of control. For the same compound, the T/C (dose: 400.0 mg/kg/injection, schedule: Q01DX009 (ip), vehicle: saline) was 91 % of control.

With `CCCC1CC[N-]CC1.CCCC1CC[N-]CC1.CCCC1CC[N-]CC1.CCCC1CC[N-]CC1.[Cl][Rh][Cl]` the T/C (dose: 0.37 mg/kg/injection, schedule: Q01DX009 (ip), vehicle: Klucel (hydroxypropylcellulose) (HPC)) was 104 % of control, the T/C (dose: 0.75 mg/kg/injection, schedule: Q01DX009 (ip), vehicle: Klucel (hydroxypropylcellulose) (HPC)) was 102 % of control and the T/C (dose: 1.5 mg/kg/injection, schedule: Q01DX009 (ip), vehicle: Klucel (hydroxypropylcellulose) (HPC)) was 100 % of control. The T/C (dose: 1.56 mg/kg/injection, schedule: Q01DX009 (ip), vehicle: saline with Tween-80) was 109 % of control, the T/C (dose: 3.13 mg/kg/injection, schedule: Q01DX009 (ip), vehicle: saline with Tween-80) was 116 % of control and the T/C (dose: 6.25 mg/kg/injection, schedule: Q01DX009 (ip), vehicle: saline with Tween-80) was 98 % of control.

In the case of `Cc1ccc(/C=N\N=C\c2ccc(C)cc2)cc1`, the T/C (dose: 50.0 mg/kg/injection, schedule: Q01DX009 (ip), vehicle: saline with Tween-80) is reported as 100 % of control and the T/C (dose: 100.0 mg/kg/injection, schedule: Q01DX009 (ip), vehicle: saline with Tween-80) is reported as 88 % of control.

In the case of `COc1cc(NS(=O)(=O)c2ccc(C(C)=O)cc2)nc(OC)n1`, the T/C [4] is reported as 100 % of control, the T/C [5] is reported as 100 % of control and the T/C [6] is reported as 93 % of control.

`CC(C)Nc1ccc(Nc2ccc(NC(C)C)cc2)cc1` was tested, and the T/C (dose: 4.5 mg/kg/injection, schedule: Q01DX009 (ip), vehicle: alcohol) was 100 % of control, the T/C (dose: 6.75 mg/kg/injection, schedule: Q04DX003 (ip), vehicle: alcohol) was 102 % of control and the T/C (dose: 9.0 mg/kg/injection, schedule: Q01DX009 (ip), vehicle: alcohol) was 92 % of control. For the same compound, the T/C (dose: 13.5 mg/kg/injection, schedule: Q04DX003 (ip), vehicle: alcohol) was 92 % of control and 97 % of control.

`COc1cccc(C(=O)C(CCC#N)c2ccccc2)c1` (stereo not drawn) was tested, and the T/C [4] was 103 % of control, the T/C [5] was 96 % of control and the T/C [6] was 103 % of control.

In the case of `CN=C1N[N+]2=CCCCC2S1` (stereo not drawn), the T/C (dose: 40.0 mg/kg/injection, schedule: Q01DX011 (ip), vehicle: saline) is reported as 104 % of control, the T/C (dose: 60.0 mg/kg/injection, schedule: Q01DX011 (ip), vehicle: saline) is reported as 112 % of control and the T/C (dose: 80.0 mg/kg/injection, schedule: Q01DX011 (ip), vehicle: saline) is reported as 111 % of control.

With `CCc1ccccc1NC(=O)Nc1ccccc1C` the T/C [7] was 87 % of control, the T/C [8] was 87 % of control and the T/C [9] was 87 % of control.

With `O=C(O)CC(NC(=O)OCc1ccccc1)C(=O)OCc1ccccc1` (stereo not drawn) the T/C (dose: 50.0 mg/kg/injection, schedule: Q01DX009 (ip), vehicle: Klucel (hydroxypropylcellulose) (HPC)) was 118 % of control, the T/C [4] was 89 % of control and the T/C [5] was 92 % of control.

For `COc1c(C(C)(C)C)cc([N+](=O)[O-])c(C)c1[N+](=O)[O-]`, the T/C [7] was 100 % of control, the T/C [8] was 96 % of control and the T/C [9] was 87 % of control.

For `Cc1ccc(S(=O)(=O)OCCN(CCOS(=O)(=O)c2ccc(C)cc2)c2ccc(F)cc2)cc1`, the T/C (dose: 0.17 mg/kg/injection, schedule: Q01DX009 (ip), vehicle: saline) was 115 % of control, the T/C (dose: 0.35 mg/kg/injection, schedule: Q01DX009 (ip), vehicle: saline) was 108 % of control and the T/C (dose: 0.7 mg/kg/injection, schedule: Q01DX009 (ip), vehicle: saline) was 106 % of control. The T/C (dose: 1.5 mg/kg/injection, schedule: Q01DX009 (ip), vehicle: saline) was 115 % of control, the T/C (dose: 3.13 mg/kg/injection, schedule: Q01DX009 (ip), vehicle: saline) was 119 % of control and the T/C (dose: 6.25 mg/kg/injection, schedule: Q01DX009 (ip), vehicle: saline) was 117 % of control. The T/C (dose: 12.5 mg/kg/injection, schedule: Q01DX009 (ip), vehicle: saline + alcohol) was 88 % of control, the T/C (dose: 50.0 mg/kg/injection, schedule: Q01DX009 (ip), vehicle: saline + alcohol) was 110 % of control and the T/C [1] was 154 % of control. For the same compound, the T/C (dose: 100.0 mg/kg/injection, schedule: Q01DX009 (ip), vehicle: saline + alcohol) was 104 % of control.

For `C=CCNC(=O)NCC=C`, the T/C (dose: 25.0 mg/kg/injection, schedule: Q01DX009 (ip), vehicle: saline) was 114 % of control, the T/C [1] was 109 % of control and the T/C [2] was 95 % of control. The T/C [3] was 100 % of control.

In the case of `O=Nc1ccc2cc(O)ccc2c1O`, the T/C (dose: 3.12 mg/kg/injection, schedule: Q04DX003 (ip), vehicle: Klucel (hydroxypropylcellulose) (HPC)) is reported as 97 % of control, the T/C (dose: 6.25 mg/kg/injection, schedule: Q01DX009 (ip), vehicle: Klucel (hydroxypropylcellulose) (HPC)) is reported as 95 % of control and the T/C (dose: 6.25 mg/kg/injection, schedule: Q04DX003 (ip), vehicle: Klucel (hydroxypropylcellulose) (HPC)) is reported as 102 % of control. The T/C (dose: 12.5 mg/kg/injection, schedule: Q01DX009 (ip), vehicle: Klucel (hydroxypropylcellulose) (HPC)) was 109 % of control and the T/C (dose: 12.5 mg/kg/injection, schedule: Q04DX003 (ip), vehicle: Klucel (hydroxypropylcellulose) (HPC)) was 100 % of control.
